Results: patent publication US9242996B2 (Novartis AG, priority 2013, dated 2016)

Biological target: activated ERK2 (Homo sapiens (Human), UniProt P28482)
Assay: Activated ERK2 (20 pM) Kinase Assay (AlphaScreen, ERKtide phosphorylation)
Type: biochemical
Details: 0.02 nM ERK2, 400 nM ERKtide peptide, 35 μM ATP, 30 min preincubation
Method in brief: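 Activated human ERK2 (0.02 nM) preincubated 30 min with compounds, then 400 nM ERKtide and 35 μM ATP added for 4 h at ambient temperature in HEPES pH 7.5, MgCl2, DTT, Tween-20, BSA. EDTA stop; phospho-peptide read by AlphaScreen after overnight dark incubation; four-parameter IC50.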

Sequence of activated ERK2 (P28482 whole entry): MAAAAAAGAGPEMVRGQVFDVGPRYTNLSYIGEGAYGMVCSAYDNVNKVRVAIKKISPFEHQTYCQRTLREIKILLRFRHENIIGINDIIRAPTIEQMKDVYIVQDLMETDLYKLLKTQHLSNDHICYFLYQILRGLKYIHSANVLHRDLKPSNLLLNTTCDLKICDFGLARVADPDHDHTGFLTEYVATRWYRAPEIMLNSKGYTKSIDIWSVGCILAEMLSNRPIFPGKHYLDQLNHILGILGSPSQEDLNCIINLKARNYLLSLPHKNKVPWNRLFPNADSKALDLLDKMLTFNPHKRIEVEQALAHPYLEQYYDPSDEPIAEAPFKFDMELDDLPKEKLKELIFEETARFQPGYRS

SMILES	IC50 [nM]
Nc1ncc([C@H]2CC[C@@H](O)CC2)nc1-c1ccc(C(=O)N[C@H](CO)c2cccc(C(F)(F)F)c2)c(F)c1 [Example 341, 4-(3-amino-6-((1s,4R)-4-hydroxy-cyclohexyl)pyrazin-2-yl)-2-fluoro-N-((S)-2-hydroxy-1-(3-(trifluoromethyl)phenyl)ethyl) benzamide]	1050
NC[C@@H](NC(=O)c1ccc(-c2nc([C@H]3CC[C@H](O)CC3)cnc2N)cc1F)c1cc(F)cc(Br)c1 [Example 342, N-((S)-2-amino-1-(3-bromo-5-fluorophenyl)ethyl)-4-(3-amino-6-((1r,4S)-4-hydroxycyclohexyl)pyrazin-2-yl)-2-fluorobenzamide]	0.0173
NC[C@@H](NC(=O)c1ccc(-c2nc([C@H]3CC[C@H](O)CC3)cnc2N)cc1F)c1cccc(I)c1 [Example 343, N-((S)-2-amino-1-(3-iodophenyl)ethyl)-4-(3-amino-6-((1r,4S)-4-hydroxy-cyclohexyl)pyrazin-2-yl)-2-fluorobenzamide]	0.011
Nc1ncc([C@H]2CC[C@H](O)CC2)nc1-c1ccc(C(=O)N[C@H](CO)c2cc(F)cc(I)c2)c(F)c1 [Example 344, 4-(3-amino-6-((1r,4S)-4-hydroxy-cyclohexyl)pyrazin-2-yl)-2-fluoro-N-((S)-1-(3-fluoro-5-iodophenyl)-2-hydroxyethyl) benzamide]	0.00977
Nc1ncc([C@H]2CC[C@@H](O)CC2)nc1-c1ccc(C(=O)N[C@H](CO)c2cc(F)cc(I)c2)c(F)c1 [Example 345, 4-(3-amino-6-((1s,4R)-4-hydroxy-cyclohexyl)pyrazin-2-yl)-2-fluoro-N-((S)-1-(3-fluoro-5-iodophenyl)-2-hydroxyethyl) benzamide]	0.0956
Nc1ncc([C@H]2CC[C@H](O)CC2)nc1-c1ccc(C(=O)N[C@H](CO)c2cccc(I)c2)c(F)c1 [Example 346, 4-(3-amino-6-((1r,4S)-4-hydroxy-cyclohexyl)pyrazin-2-yl)-2-fluoro-N-((S)-2-hydroxy-1-(3-iodophenyl)ethyl) benzamide]	0.0175
Nc1ncc([C@H]2CC[C@@H](O)CC2)nc1-c1ccc(C(=O)N[C@H](CO)c2cccc(I)c2)c(F)c1 [Example 347, 4-(3-amino-6-((1s,4R)-4-hydroxy-cyclohexyl)pyrazin-2-yl)-2-fluoro-N-((S)-2-hydroxy-1-(3-iodophenyl)ethyl) benzamide]	0.193
NC[C@@H](NC(=O)c1ccc(-c2nc([C@H]3CC[C@H](O)CC3)cnc2N)cc1F)c1cc(F)cc(I)c1 [Example 373, N-((S)-2-amino-1-(3-fluoro-5-iodophenyl)ethyl)-4-(3-amino-6-((1r,4S)-4-hydroxy-cyclohexyl)pyrazin-2-yl)-2-fluorobenzamide]	0.00837
CNC[C@@H](NC(=O)c1ccc(-c2nc([C@H]3CC[C@H](OC)CC3)cnc2N)cc1F)c1cccc(Br)c1 [Example 375, 4-(3-amino-6-((1r,4S)-4-methoxy-cyclohexyl)pyrazin-2-yl)-N-((S)-1-(3-bromophenyl)-2-(methylamino)ethyl)-2-fluorobenzamide]	0.0401
CNC[C@@H](NC(=O)c1ccc(-c2nc([C@H]3CC[C@H](OC)CC3)cnc2N)cc1F)c1cccc(Cl)c1 [Example 377, 4-(3-amino-6-((1r,4S)-4-methoxy-cyclohexyl)pyrazin-2-yl)-N-((S)-1-(3-chlorophenyl)-2-(methylamino)ethyl)-2-fluorobenzamide]	0.07
CCNC[C@@H](NC(=O)c1ccc(-c2nc(C3CCOCC3)cnc2N)cc1F)c1cccc(Br)c1 [Example 378, (S)-4-(3-amino-6-(tetrahydro-2H-pyran-4-yl)pyrazin-2-yl)-N-(1-(3-bromophenyl)-2-(ethylamino)ethyl)-2-fluorobenzamide]	0.0248
CCNC[C@@H](NC(=O)c1ccc(-c2nc([C@H]3CC[C@H](O)CC3)cnc2N)cc1F)c1cccc(Br)c1 [Example 379, 4-(3-amino-6-((1r,4S)-4-hydroxy-cyclohexyl)pyrazin-2-yl)-N-((S)-1-(3-bromophenyl)-2-(ethylamino)ethyl)-2-fluorobenzamide]	0.0617
CNC[C@@H](NC(=O)c1ccc(-c2nc(C3CCOCC3)cnc2N)cc1F)c1cccc(Br)c1 [Example 380, (S)-4-(3-amino-6-(tetrahydro-2H-pyran-4-yl)pyrazin-2-yl)-N-(1-(3-bromophenyl)-2-(methylamino)ethyl)-2-fluorobenzamide]	0.0097
CNC[C@@H](NC(=O)c1ccc(-c2nc([C@H]3CC[C@H](O)CC3)cnc2N)cc1F)c1cccc(Br)c1 [Example 381, 4-(3-amino-6-((1r,4S)-4-hydroxy-cyclohexyl)pyrazin-2-yl)-N-((S)-1-(3-bromophenyl)-2-(methylamino)ethyl)-2-fluorobenzamide]	0.0209
CO[C@H]1CC[C@H](c2cnc(N)c(-c3ccc(C(=O)N[C@H](CN)c4cc(F)cc(I)c4)c(F)c3)n2)CC1 [Example 382, N-((S)-2-amino-1-(3-fluoro-5-iodophenyl)ethyl)-4-(3-amino-6-((1r,4S)-4-methoxy-cyclohexyl)pyrazin-2-yl)-2-fluorobenzamide]	0.0107
CO[C@H]1CC[C@H](c2cnc(N)c(-c3ccc(C(=O)N[C@H](CN)c4cccc(Br)c4)c(F)c3)n2)CC1 [Example 383, N-((S)-2-amino-1-(3-bromophenyl)ethyl)-4-(3-amino-6-((1r,4S)-4-methoxy-cyclohexyl)pyrazin-2-yl)-2-fluorobenzamide]	0.0689
CSc1cccc([C@@H](CO)NC(=O)c2ccc(-c3nc(C4CCOCC4)cnc3N)cc2F)c1 [Example 387, (S)-4-(3-amino-6-(tetrahydro-2H-pyran-4-yl)pyrazin-2-yl)-2-fluoro-N-(2-hydroxy-1-(3-(methylthio)phenyl)ethyl)benzamide]	0.01

Now from value to compound:

IC50 [nM]	SMILES
0.023	CNC[C@@H](NC(=O)c1ccc(-c2nc([C@@H]3CC[C@@H](O)[C@@H](F)C3)cnc2N)cc1F)c1cc(F)cc(Br)c1 [Example 355, 4-(3-amino-6-((1R,3S,4R)-3-fluoro-4-hydroxy-cyclohexyl)pyrazin-2-yl)-N-((S)-1-(3-bromo-5-fluorophenyl)-2-(methylamino)ethyl)-2-fluorobenzamide]
0.0317	CNC[C@@H](NC(=O)c1ccc(-c2nc([C@H]3CC[C@H](O)[C@H](F)C3)cnc2N)cc1F)c1cc(F)cc(Br)c1 [Example 356, 4-(3-amino-6-((1S,3R,4S)-3-fluoro-4-hydroxy-cyclohexyl)pyrazin-2-yl)-N-((S)-1-(3-bromo-5-fluorophenyl)-2-(methylamino)ethyl)-2-fluorobenzamide]
0.0143	CNC[C@@H](NC(=O)c1ccc(-c2nc([C@H]3CC[C@H](O)[C@@H](F)C3)cnc2N)cc1F)c1cc(F)cc(I)c1 [Example 357, 4-(3-amino-6-((1S,3S,4S)-3-fluoro-4-hydroxy-cyclohexyl)pyrazin-2-yl)-2-fluoro-N-((S)-1-(3-fluoro-5-iodophenyl)-2-(methylamino)ethyl)benzamide]
0.0205	CNC[C@@H](NC(=O)c1ccc(-c2nc([C@@H]3CC[C@@H](O)[C@H](F)C3)cnc2N)cc1F)c1cc(F)cc(I)c1 [Example 358, 4-(3-amino-6-((1R,3R,4R)-3-fluoro-4-hydroxy-cyclohexyl)pyrazin-2-yl)-2-fluoro-N-((S)-1-(3-fluoro-5-iodophenyl)-2-(methylamino)ethyl)benzamide]
0.076	CNC[C@@H](NC(=O)c1ccc(-c2nc([C@@H]3CC[C@@H](O)[C@H](F)C3)cnc2N)cc1F)c1cccc(Br)c1 [Example 359, 4-(3-amino-6-((1R,3R,4R)-3-fluoro-4-hydroxy-cyclohexyl)pyrazin-2-yl)-N-((S)-1-(3-bromophenyl)-2-(methylamino)ethyl)-2-fluorobenzamide]
0.00665	CNC[C@@H](NC(=O)c1ccc(-c2nc([C@H]3CC[C@H](O)CC3)cnc2N)cc1F)c1cc(F)cc(I)c1 [Example 360, 4-(3-amino-6-((1r,4S)-4-hydroxy-cyclohexyl)pyrazin-2-yl)-2-fluoro-N-((S)-1-(3-fluoro-5-iodophenyl)-2-(methylamino)ethyl)benzamide]
0.104	CNC[C@@H](NC(=O)c1ccc(-c2nc([C@@H]3CC[C@@H](O)[C@H](F)C3)cnc2N)cc1F)c1cc(F)cc(Br)c1 [Example 361, 4-(3-amino-6-((1R,3R,4R)-3-fluoro-4-hydroxy-cyclohexyl)pyrazin-2-yl)-N-((S)-1-(3-bromo-5-fluorophenyl)-2-(methylamino)ethyl)-2-fluorobenzamide]
0.0208	CNC[C@@H](NC(=O)c1ccc(-c2nc(C3CCOCC3)cnc2N)cc1F)c1cc(F)cc(Br)c1 [Example 365, (S)-4-(3-amino-6-(tetrahydro-2H-pyran-4-yl)pyrazin-2-yl)-N-(1-(3-bromo-5-fluorophenyl)-2-(methylamino)ethyl)-2-fluorobenzamide]
0.03	CCNC[C@@H](NC(=O)c1ccc(-c2nc(C3CCOCC3)cnc2N)cc1F)c1cc(F)cc(Br)c1 [Example 371, (S)-4-(3-amino-6-(tetrahydro-2H-pyran-4-yl)pyrazin-2-yl)-N-(1-(3-bromo-5-fluorophenyl)-2-(ethylamino)ethyl)-2-fluorobenzamide]
0.0205	CNC[C@@H](NC(=O)c1ccc(-c2nc([C@H]3CC[C@H](OC)CC3)cnc2N)cc1F)c1cc(F)cc(Br)c1 [Example 374, 4-(3-amino-6-((1r,4S)-4-methoxy-cyclohexyl)pyrazin-2-yl)-N-((S)-1-(3-bromo-5-fluorophenyl)-2-(methylamino)ethyl)-2-fluorobenzamide]
0.0183	CNC[C@@H](NC(=O)c1ccc(-c2nc([C@H]3CC[C@H](O)CC3)cnc2N)cc1F)c1cc(F)cc(Br)c1 [Example 376, 4-(3-amino-6-((1r,4S)-4-hydroxy-cyclohexyl)pyrazin-2-yl)-N-((S)-1-(3-bromo-5-fluorophenyl)-2-(methylamino)ethyl)-2-fluorobenzamide]
